In brackets after ≈: the same amount, converted by molar mass. Entries after “also recorded” stand apart in the source; their conditions may differ. Where two headings read alike, the source gives them in different places.
Assays:
S. aureus = experiment: Antibiotic activity (MIC); type: cell-based; details: Staphylococcus aureus
[1] = system: chick embryo vitelline capillaries; experiment: Chick embryo vitelline capillary regression assay; type: in vivo; set-up: key to vascular reactivity (capillary regression): +: Vascular reactivity; 0: No vascular reactivity; +/-: Equivocal reactivity; details: for Chick embryo diss. assay, Minimum Effective Concentration: Table II; for vascular reactivity (capillary regression): 60 min
Experimental: Using the chick embryo vitelline capillaries assay, compounds were tested for their ability to induce capillary regression. Each compound was applied in 0.1 ml of 15% Ficol 400 and PBS onto the embryo, and vascular regression was assessed after 60 minutes.
The 3-day chick embryo consists of an embryonic disc from which numerous vessels emerge and return, forming a "figure 8"-shaped structure--the embryo in the center with vascular loops extending outward over both poles. […] Following a lag period of around 15 minutes, the constriction of continuity between capillary and secondary vessels, generally on the "avenous" side, was observed. Continued pulsatile blood flow progressed, resulting in a "swelling" of the blind tube, followed by a pinching off of the remaining connection and formation of an enclosed vascular sac resembling a "blood island." This process progressed until only the largest vessels remained intact.

HM = HM MTT assay; type: cell-based; details: Table II, Minimum Effective Concentration
Xenopus tadpole = details: stage 59-60, 10 μg/ml; for pharmacological response in tadpole: in words
B16 melanoma = B16 melanoma growth in C57B mice; type: in vivo, mouse; details: squalamine 5 mg/kg/day; compound 1436 10 mg/kg/every 3 days
Experimental: The growth of B16 melanoma in C57B mice is dependent upon neovascularization.
Using the growth of B16 melanoma cells in C57B mice, a recognized model for the evaluation of inhibitors of angiogenesis on the growth of cancers, the effects of subcutaneous, intraperitoneal and oral administration of squalamine were evaluated.
In this model, there was observed little evidence of metastasis with or without treatment with chemotherapeutic agents.
Based on the idea that tumor growth involves both the clonal expansion of a malignant cell along with the development of a supporting vascular supply, a combination of compound 1436 with squalamine was tested to determine whether it would achieve a synergistic effect on solid tumor growth. This concept was evaluated in the B16 melanoma model.
Animals were implanted with B16 melanoma followed by treatment with compound 1436 or 1256 administered in a combined schedule or separately. […] Thus, a combination of these two compounds achieves a therapeutic benefit in tumors dependent on neovascularization that may prevent metastatic spread.

[2] = system: PHA-stimulated human lymphocytes; experiment: Inhibition of mitogen (PHA)-stimulated growth of human T-cells; type: cell-based; details: in words; 10 μg/ml
Source text: Results are tabulated below.

[3] = system: Human colon carcinoma HT29; experiment: Growth inhibition in vitro; type: cell-based; details: 10 μg/ml
Source text: (§1) As set forth in Table 7 below, all malignant tumors evaluated in tissue culture, endothelial cells and vascular smooth muscle cells were sensitive to inhibition. Thus, compound 1436 has application in the control of growth factor dependent proliferation of many types of tissue.

[4] = system: Human colon carcinoma SW948; experiment: Growth inhibition in vitro; type: cell-based; details: 10 μg/ml
Source text: as §1

[5] = system: Human coronary artery smooth muscle cells; experiment: Growth inhibition in vitro; type: cell-based; details: 10 μg/ml
Source text: as §1

Human melanoma WM 1617 = experiment: Growth inhibition in vitro; type: cell-based; details: 10 μg/ml
Source text: as §1

[6] = system: Human microvascular endothelial cells; experiment: Growth inhibition in vitro; type: cell-based; details: 10 μg/ml
Source text: as §1

[7] = system: Human ovarian carcinoma SKOV3; experiment: Growth inhibition in vitro; type: cell-based; details: 10 μg/ml
Source text: as §1

Lewis lung carcinoma = experiment: Growth inhibition in vitro; type: cell-based; details: 10 μg/ml
Source text: as §1

Murine B16 melanoma = experiment: Growth inhibition in vitro; type: cell-based; details: 10 μg/ml
Source text: as §1

Murine L1210 leukemia = experiment: Growth inhibition in vitro; type: cell-based; details: 10 μg/ml
Source text: as §1

[8] = system: bovine pulmonary endothelial cells; experiment: Growth inhibition in vitro; type: cell-based; details: 10 μg/ml
Source text: as §1

[9] = system: human umbilical venous endothelial cells; experiment: Growth inhibition in vitro; type: cell-based; details: 10 μg/ml
Source text: as §1

HIV = experiment: Inhibition of HIV replication (P-24 Elisa); type: cell-based; details: 7 days
[10] = Fasting blood glucose in mice; type: in vivo, mouse (male CD-1); details: i.v.; in words
Experimental: To study the effect of steroid administrator or the NHE responsible for secretion of insulin, several of the aminosterols from shark liver were administered to fasting mice. Male CD-1 mice were assigned to one of four treatment groups. Whole blood glucose was tested using glucometer (Lifescan Glucometer II and One Touch test strips). Statistical analysis was via one-way analysis of variance (ANOVA) followed by subsequent Bonferonni's t-test.

[11] = system: human coronary artery smooth muscle; experiment: Proliferation of human coronary artery smooth muscle in vitro; type: cell-based; details: in words (1436: about 11 μg/ml)
Source text: Aminosterols of the invention may also have utility in inhibiting the growth factor mediated proliferation of smooth muscle within the artery. Following coronary angioplasty, reocclusion commonly occurs, secondary to reparative proliferation of the vascular smooth muscle within the wall of the surgically manipulated blood vessel. This process generally takes place over the course of 7-10 days. To evaluate whether an agent could prevent the growth factor mediated proliferation of smooth muscle within the artery, compound 1436 was evaluated in vitro for its effect on the proliferation of human coronary artery smooth muscle. Results for compound 1436 are shown in FIG. 13, and those for squalamine are shown in FIG. 14, with FIG. 15 being a composite logarithmic plot.

[12] = Growth and weight gain in mice; type: in vivo, mouse (C57B)
Experimental: Animals were dosed QTD (i.p.) starting on Day 1. […] Animals receiving 5 mg/kg QTD experienced about a 50% reduction in growth, compared to untreated controls, while animals receiving 1 mg/kg QTD were affected by about 10%. […] They appeared very much like hypophysectamized animals might appear.

[13] = Arterial resistance / pressure in the rat; type: in vivo; details: 30 minutes; noradrenaline 40 μg
Experimental: A 200-g rat was catheterized in the right carotid artery, and the compound was introduced over a ten-second period to a total dosage of 5 mg/kg.
At that time, 40 μg of noradrenaline was introduced.

Xenopus laevis heart = experiment: Isolated frog heart beating ex vivo; details: 10 μg/ml, room temperature; about one hour without compound
Experimental: To determine if compound 1436 has such utility, the following experiment was performed. The heart of a juvenile Xenopus laevis frog was dissected from the living animal. The heart was placed into a Petri dish containing Krebs-Ringer buffer with adrenaline 50 μg/ml, and examined with the naked eye. At room temperature, the heart continued beating in a coordinated fashion (atrial beat followed by ventricular beat) for about one hour. In the presence of 10 μg/ml of compound 1436, spontaneous beating persisted up to 24 hours.

[14] = system: malignant tumors, endothelial cells and vascular smooth muscle cells; experiment: Inhibition of growth of a spectrum of cells; type: cell-based; details: in words
Source text: as §1

[15] = Hematological profile in L1210-inoculated mice; details: L1210 mice; cisplatin 8 mg/kg ip or compound 1436 10 mg/kg ip q4d
Source text: C57B mice were inoculated with L1210 lymphoblastic leukemia cells at an inoculum that causes leukemia in 100% of animals.

rabbit NHE3 = rabbit NHE3 (Oryctolagus cuniculus, UniProt P26432); details: 10 μg/ml, acid preloaded
Chain of rabbit NHE3 (P26432 30-832): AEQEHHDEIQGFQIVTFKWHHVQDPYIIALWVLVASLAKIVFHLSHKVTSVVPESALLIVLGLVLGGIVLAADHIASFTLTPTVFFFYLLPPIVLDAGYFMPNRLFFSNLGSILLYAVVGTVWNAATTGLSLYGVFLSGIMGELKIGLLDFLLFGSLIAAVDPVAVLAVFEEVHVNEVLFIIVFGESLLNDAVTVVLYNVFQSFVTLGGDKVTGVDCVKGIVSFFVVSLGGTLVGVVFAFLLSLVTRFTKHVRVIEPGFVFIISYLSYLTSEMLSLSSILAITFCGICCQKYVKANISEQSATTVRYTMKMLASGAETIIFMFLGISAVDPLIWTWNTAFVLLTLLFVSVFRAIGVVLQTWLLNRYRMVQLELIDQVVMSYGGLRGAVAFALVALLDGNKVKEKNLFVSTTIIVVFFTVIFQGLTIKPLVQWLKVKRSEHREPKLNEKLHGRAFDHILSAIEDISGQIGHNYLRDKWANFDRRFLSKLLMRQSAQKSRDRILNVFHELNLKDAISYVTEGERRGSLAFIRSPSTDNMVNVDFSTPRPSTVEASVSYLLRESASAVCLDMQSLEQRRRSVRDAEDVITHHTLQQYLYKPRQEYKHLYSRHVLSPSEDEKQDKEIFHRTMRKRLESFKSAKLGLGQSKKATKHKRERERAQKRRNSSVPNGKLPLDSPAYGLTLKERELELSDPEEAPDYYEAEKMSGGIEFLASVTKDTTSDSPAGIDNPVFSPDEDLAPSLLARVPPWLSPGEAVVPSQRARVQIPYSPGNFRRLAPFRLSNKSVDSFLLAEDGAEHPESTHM
Experimental: For cells not acid-preloaded, the actual internal pH value was monitored as a function of time following addition of squalamine, with the results depicted in FIG. 1B.
PS120 fibroblasts transfected with rabbit NHE3 were grown and acid preloaded by exposure to 40 mM NH4 C1 as described above in conjunction with FIGS. 1A and 1B. Internal cellular pH changes expressed as the rate of pH recovery as a function of restored extracellular sodium ion concentration following exposure to 10 μg/ml of the compound were assayed with the fluorescent dye BCECF-AM as described above.

Chemical stability = type: physicochemical

## CC(COS(=O)(=O)O)C(=O)CC[C@@H](C)[C@H]1CC[C@H]2[C@@H]3[C@H](O)C[C@H]4C[C@@H](NCCCNCCCCN)CC[C@]4(C)[C@H]3CC[C@]12C (stereo partly drawn)
S. aureus
  MIC: 8 µg/mL (≈ 12.5 µM)

## CC(C)CCC[C@@H](C)[C@H]1CC[C@H]2[C@@H]3[C@H](O)C[C@H]4C[C@H](NCCCNCCCCN)CC[C@]4(C)[C@H]3CC[C@]12C [Compound 370]
[1]
  Chick embryo diss. assay, Minimum Effective Concentration: > 10 µg
HM
  minimal effective concentration: 40 µg/mL
Xenopus tadpole
  pharmacological response in tadpole: pharmacologic activity similar to that seen for FX 3

## CC(C)[C@@H](CC[C@@H](C)[C@H]1CC[C@H]2[C@@H]3[C@H](O)C[C@H]4C[C@@H](NCCCNCCCCNCCCN)CC[C@]4(C)[C@H]3CC[C@]12C)OS(=O)(=O)O [Compound 1436]
[1]; 0.001 μg applied
  vascular reactivity (capillary regression): +/-
[1]; 0.01 μg applied
  vascular reactivity (capillary regression): +
[1]; 0.1 μg applied
  vascular reactivity (capillary regression): +
[1]; 1 μg applied
  vascular reactivity (capillary regression): +
[1]; 10 μg applied
  vascular reactivity (capillary regression): +
[1]
  Chick embryo diss. assay, Minimum Effective Concentration: 1 µg
[1]; in words
  effect on chick embryo vessels / blood: causes vitelline capillary regression with about the same potency as squalamine
B16 melanoma
  effect on B16 tumor volume, single agent and combination: no significant impact on tumor volume
[2]
  inhibition of blast transformation: inhibited blast transformation most potently
[3]
  growth inhibition in vitro: INHIBITED
[4]
  growth inhibition in vitro: INHIBITED
[5]
  growth inhibition in vitro: INHIBITED
Human melanoma WM 1617
  growth inhibition in vitro: INHIBITED
[6]
  growth inhibition in vitro: INHIBITED
[7]
  growth inhibition in vitro: INHIBITED
Lewis lung carcinoma
  growth inhibition in vitro: INHIBITED
Murine B16 melanoma
  growth inhibition in vitro: INHIBITED
Murine L1210 leukemia
  growth inhibition in vitro: INHIBITED
[8]
  growth inhibition in vitro: INHIBITED
[9]
  growth inhibition in vitro: INHIBITED
HIV; 0.5 μM
  P-24 Elisa: 40561
HIV; 1 μM
  P-24 Elisa: 7464
HIV; 5 μM
  P-24 Elisa: 3426
HIV; 10 μM
  P-24 Elisa: 421
HIV; 20 μM
  P-24 Elisa: 9
[10]
  hyperglycemia: caused hyperglycemia in mice
[11]
  growth suppression / viability of smooth muscle cells: maintained in a quiescent state in the presence of this steroid at about 11 μg/ml without loss of viability; also recorded: suppress in vitro the growth of human coronary artery smooth muscle
[12]; 1 mg/kg QTD i.p.
  effect on growth of mice: about 10%
[12]; 5 mg/kg QTD i.p.
  reduction in growth of mice: ~50%
[12]; 10 mg/kg QTD i.p., about 1 month
  growth suppression in mice: almost completely inhibited
[12]; QTD i.p.
  clinical health of treated mice: all were active, normally proportioned, not-cachectic, and in excellent apparent clinical health
[12]; in words, QTD i.p.
  suppression of growth and weight gain: suppresses both linear growth and weight gain in growing mice in a dose-dependent fashion; also recorded: suppresses the growth of mice in a dose-dependent fashion
[13]
  duration / reversibility of arterial effect: followed for 30 minutes, without significant change; also recorded: readily reversible by standard pharmacological practice
Xenopus laevis heart
  persistence of spontaneous beating: up to 24 hours
[14]
  growth inhibition of a broad spectrum of cells: inhibit the growth of a very broad spectrum of cells
Xenopus tadpole
  time to death: about 2 hours
  pharmacological response in tadpole: Gradual reduction in overall activity. Heart beat remained strong, suggesting nervous system depression. Melanocytes over head and tail began to swell, first exhibiting visibly distinct nuclei, followed by rupture into fragments.
[15]
  RBC, Early Time: 4.8 10^6 /mm^3
  RBC, Late Time: 8.8 10^6 /mm^3
  WBC, Early Time: 3.3 10^3 /mm^3
  WBC, Late Time: 3.7 10^3 /mm^3
Rabbit NHE3
  inhibition of rabbit NHE3: inhibit rabbit NHE3
Rabbit NHE3; listed as compound 1436
  inhibition of rabbit NHE3: inhibitor of NHE3

## CC(CCC(=O)C(C)(C)OS(=O)(=O)O)[C@H]1CCC2C3C(CC[C@@]21C)[C@@]1(C)CC[C@H](NCCCNCCCCN)C[C@@H]1C[C@H]3O (stereo partly drawn) [FX 1A]
Chemical stability
  stability in water: undergo conversion to another molecule (FX 1B) rapidly in water

— patent US5840740A, “Aminosterol compounds and a method of treating infection using the aminosterol compounds” (priority 1995, dated 1998)
